According to patent US11464771B2, “Bromodomain and extra-terminal protein inhibitor combination therapy” (CELGENE QUANTICEL RESEARCH, INC., priority 2016, dated 2022):

Key:
[1] = non-leukemic hematologic malignancies; cited from earlier work
[2] = system: PA0165 pancreatic xenograft; assay: Pancreatic xenograft PA0165, Compound A and Romidepsin; assay type: in vivo, NSG mice
Protocol: 3/4 is 3 days on and 4 days off; Q4D is once every 4 days; Q7D is once every 7 days; —— Control; - - - - Compound A 25 mg/kg, 3/4; - —— - —— Romidepsin 1.5 mg/kg Q4D×3; —— —— Compound A 25 mg/kg. 3/4 combined with Romidepsin 1.5 mg/kg Q7D; - - - Compound A 25 mg/kg, 3/4 combined with Romidepsin 0.75 mg/kg Q7D. Tumor volumes were plotted as mean±standard error of the mean (SEM).
3/4 is 3 days on and 4 days off; Q4D is once every 4 days. —— Control; - - - - Compound A at 25 mg/kg, 3/4; - —— - —— Romidepsin 1.5 mg/kg Q4D×3; —— —— Compound A 25 mg/kg, 3/4 combined with Romidepsin 1.5 mg/kg Q7D; - - - Compound A 25 mg/kg, 3/4 combined with Romidepsin 0.75 mg/kg Q7D.
Cohorts of 4-6 wk-old NSG mice bearing PA0165 were treated with Romidepsin at 1.5 mg/kg intravenous (IV)×3 Q4D; Compound A 25 mg/kg orally QD 3 days on then 4 days off; or with a combination of Compound A 25 mg/kg orally QD 3 days on then 4 days off and Romidepsin at 1.5 or 0.75 mg/kg IV Q7D. The treatment lasted 21 days.

locally advanced BCC = details: cited from earlier work
basal cell carcinoma = details: BCC; cited from earlier work

Which “patients with Grade 3 hyperglycemia” value [1] does the source give for `Cc1sc2c(c1C)C(c1ccc(Cl)cc1)=N[C@@H](CC(=O)Nc1ccc(O)cc1)c1nnc(C)n1-2` [OTX015] here?
Its value is 1 patient.

With `C/C=C1\NC(=O)[C@H]2CSSCC/C=C/[C@H](CC(=O)N[C@H](C(C)C)C(=O)N2)OC(=O)[C@H](C(C)C)NC1=O` [Romidepsin, (1S,4S,7Z,10S,16E,21R)-7-ethylidene4,21-diisopropyl-2-oxa-12,13-dithia-5,8,20,23-tetrazabicyclo[8.7.6]tricos-16-ene-3,6,9,19,22pentone, reference compound] as the compound, how does the TGI ([2]; Romidepsin 1.5 mg/kg IV ×3 Q4D alone, 21 days) read?
The TGI was 45%.

What about the survival rate ([2]; day 30, Romidepsin only group) of the same compound?
Its survival rate is “about 10%”.

With `Cc1c(C(=O)Nc2ccc(N3C[C@@H](C)O[C@@H](C)C3)nc2)cccc1-c1ccc(OC(F)(F)F)cc1` [sonidegib] as the compound, how does the “investigator-assessed responses lasting at least six months” value (locally advanced BCC) read?
Its value is 60%.

For `CS(=O)(=O)c1ccc(C(=O)Nc2ccc(Cl)c(-c3ccccn3)c2)c(Cl)c1` [vismodegib], which “median duration of response” value (basal cell carcinoma) is on record?
The value was 7.6 months.
